The source of these data is patent US20180339015A1, “Therapeutic Nanoparticles Comprising An Antibiotic and Methods of Making and Using Same” (priority 2015, published 2018).

The term MIC90 denotes the lowest concentration that inhibits either 90% of growth or 90% of the strains tested, depending on the study. The MIC50 is the lowest concentration that inhibits either 50% of growth or 50% of the strains tested, depending on the study. As usually defined, the LD50 is the dose expected to kill half of the subjects tested. A high value points to lower toxicity.

For series [1], the system named is K. pneumoniae. Particulars: cited from earlier work.
For series [2], the system named is Acinetobacter species. Particulars: cited from earlier work.
Series [3] deals with Shigella spp. The note with it: cited from earlier work.
The subject of series [4] is E. coli. The note with it: cited from earlier work.
Series [5] deals with Salmonella spp. The note with it: cited from earlier work.
Series [6] concerns P. aeruginosa. Particulars: cited from earlier work.
Series [7] relates to Enterobacter spp. The note with it: cited from earlier work.
Series [8] deals with Citrobacter spp. Particulars: cited from earlier work.
For series [9] the following is noted: mice, intravenous injection.
Series [10] relates to Klebsiella. The series can be described thus: Klebsiella thigh infection model, efficacy and biodistribution. In kind it is in vivo. The protocol: CS-NPs were further tested for their efficacy and biodistribution in a Klebsiella thigh infection model. […] In summary. CS-NPs have the same efficacy as free CS in a thigh infection model after 24 hours.
Series [11] concerns K. pneumonia. In words: K. pneumonia lung infection model. In kind it is in vivo. The note with it: single 40 mg/kg dose s.c., n=6. The protocol:
CS-NPs were tested for their efficacy in a K. pneumonia lung infection model. Results are depicted in FIG. 11.

With colistin, the MIC90 in series [1] was at most 1 µg/mL; in [2], at most 2 µg/mL; in series [3], at most 0.5 µg/mL; in series [4] it was at most 2 µg/mL; in [5] it was at most 1 µg/mL; in series [6], at most 4 µg/mL. In addition, in [8], the MIC90 was at most 1 µg/mL. For the same substance, the MIC50 in series [7] is at most 1 µg/mL.
As to colistin sulphate [CS], in series [9], the “LD50” value is listed as 6 mg/kg and the “MTD” value worked out at 2 mg/kg. For the same substance, the bacteremia entry in series [10] (thigh infection model) is “prevented bacteremia”. Moreover, the “bacteria counts in site of infection” value in series [10] (thigh, after 24 hours) is recorded as “significantly decreased bacteria counts”. The same substance yielded an animals sterilized in series [11] of 50%.
